For assay [1], the target named is T1, hCB2R (human CB2R) (Homo sapiens, UniProt P34972).
T1 construct: gene CNR2; full-length receptor stably expressed in CHO cells
The assay is described as follows: competition radioligand binding, [3H]CP-55, […].

Assay [2] addresses T2, CB1R (U2 OS cells, reporter gene assay) (Homo sapiens, UniProt P21554).
T2 construct: gene CNR1; receptor stably expressed in U2 OS cells
Description: SRE-luciferase reporter gene assay, agonism. The class given is cell-based. Conditions: agonist mode.

Assay [3] addresses T1, hCB2R (human CB2R). The assay is described as follows: forskolin-stimulated cAMP accumulation, antagonism. The assay is classed as cell-based. From the text:
forskolin-stimulated cAMP accumulation, antagonism on hCB2R (human CB2R) | antagonism for CB1R and CB2R with IC50 values in micromolar ranges
(Changes in cAMP serve as a functional read-out for many G protein-coupled receptors.)

In assay [4] the target is T2, CB1R (U2 OS cells, reporter gene assay). Description: SRE-luciferase reporter gene assay, antagonism. The class given is cell-based. An excerpt: SRE-luciferase reporter gene assay, antagonism on CB1R (U2 OS cells, reporter gene assay) | antagonism for CB1R and CB2R with IC50 values in micromolar ranges
(In general: A reporter such as luciferase makes a cellular process visible.)

Among the data in PMC4627794, “Non-Selective Cannabinoid Receptor Antagonists, Hinokiresinols Reduce Infiltration of Microglia/Macrophages into Ischemic Brain Lesions in Rat via Modulating 2-Arachidonolyglycerol-Induced Migration and Mitochondrial Activity” (PLoS ONE, 2015) are Ki, EC50 and IC50 values, retold here.

T1 sequence (P34972 whole entry): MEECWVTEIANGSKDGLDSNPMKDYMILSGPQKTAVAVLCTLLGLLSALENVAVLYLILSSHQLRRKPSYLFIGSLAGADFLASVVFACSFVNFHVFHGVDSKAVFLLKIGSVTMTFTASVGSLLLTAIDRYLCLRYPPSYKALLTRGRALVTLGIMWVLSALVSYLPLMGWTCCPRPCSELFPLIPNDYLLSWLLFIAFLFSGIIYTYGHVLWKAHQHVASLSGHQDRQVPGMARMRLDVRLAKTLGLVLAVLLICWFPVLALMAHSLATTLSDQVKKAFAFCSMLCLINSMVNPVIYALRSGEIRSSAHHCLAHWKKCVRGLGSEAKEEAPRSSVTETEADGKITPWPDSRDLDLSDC
T2 sequence (P21554 whole entry): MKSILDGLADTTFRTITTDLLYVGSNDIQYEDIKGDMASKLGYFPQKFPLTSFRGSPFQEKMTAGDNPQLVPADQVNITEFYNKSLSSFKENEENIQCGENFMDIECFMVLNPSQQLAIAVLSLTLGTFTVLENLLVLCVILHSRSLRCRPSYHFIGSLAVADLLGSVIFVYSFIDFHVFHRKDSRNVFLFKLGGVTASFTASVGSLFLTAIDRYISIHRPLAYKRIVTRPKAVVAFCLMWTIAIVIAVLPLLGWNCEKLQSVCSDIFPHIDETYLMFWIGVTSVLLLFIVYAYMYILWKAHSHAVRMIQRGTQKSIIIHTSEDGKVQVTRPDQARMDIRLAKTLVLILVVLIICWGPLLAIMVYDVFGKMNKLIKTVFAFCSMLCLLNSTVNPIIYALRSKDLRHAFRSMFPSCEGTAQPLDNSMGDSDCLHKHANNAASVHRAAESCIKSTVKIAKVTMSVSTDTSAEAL

As for `CN1CCCCC1Cn1cc(C(=O)c2cc([N+](=O)[O-])ccc2I)c2ccccc21` (centres unmarked) [AM-1241, reference compound], at hCB2R (human CB2R) [1], the inhibition constant Ki (usually the equilibrium dissociation constant of an inhibitor or competing ligand from its target) was determined as 0.0066 µM.

Consider `CCCCCCC(C)(C)c1cc(O)c2c(c1)OC(C)(C)[C@@H]1CC=C(CO)C[C@@H]21` [Hu-210], for which, in assay [2], the EC50 (commonly the midpoint of the concentration-response curve) came out at 0.000199 µM.

Take `C=C[C@@H](/C=C\c1ccc(O)cc1)c1ccc(O)cc1` [cis-hinokiresinol]: the affinity on hCB2R (human CB2R) [1] corresponds to a Ki of 12.2 µM. Also, the figures for the 50% inhibitory concentration (IC50) (at hCB2R (human CB2R) [3]; in assay [4]) were 72.5 µM and 11.2 µM, respectively.

With `C=C[C@@H](/C=C/c1ccc(O)cc1)c1ccc(O)cc1` [trans-hinokiresinol], the Ki at hCB2R (human CB2R) [1] stood at 9.5 µM. In addition, the 50% inhibitory concentration (IC50) (usually the concentration that gives 50% inhibition) against hCB2R (human CB2R) [3] worked out at 20.5 µM; in assay [4], 10.2 µM.
